Test results reported in patent US8445449B2, “Method and peptide for regulating cellular activity” (The United States of America, as represented by the …, priority 2004, dated 2013).
Read-outs that look alike come from different tables or passages of the source. Where no end group is shown, it is not given here.

How the values were obtained:
[1] = tested on: bacterial-induced middle ear inflammation; conditions: 10 μM peptide without bacteria, five mice, 3 days

Sequence | effect on cell viability (cell viability) | effect of peptide alone on fluid area, cell number, tympanic membrane thickness vs PBS injected ear [1] | effect on cell viability (cell viability; 10 μM)
ITCVDVDLIYKRRRRRRRRR [Scrambled peptide, reference compound] | no effect on cell viability | – | –
DIVKLTVYDCIRRRRRRRRR [peptide P13] | – | no differences | no effect on cell viability
